The record followed here is ChEMBL document CHEMBL2169878 (J Med Chem, 2012).

The subject of data set [1] is Plasmodium falciparum. In words: Antiplasmodial activity against chloroquine-resistant Plasmodium falciparum W2 infected in human RBC after 72 hrs by parasite lactate dehydrogenase assay. In kind it is functional, organism-based. Particulars: W2, 72 h.
For data set [2], the system named is Plasmodium falciparum. In words: Antiplasmodial activity against chloroquine-sensitive Plasmodium falciparum D10 infected in human RBC after 72 hrs by parasite lactate dehydrogenase assay. Particulars: D10, 72 h. In kind it is functional, organism-based.
In data set [3] the test system is Plasmodium falciparum. In words: Resistance ratio of IC50 for chloroquine-resistant Plasmodium falciparum W2 to IC50 for chloroquine-sensitive Plasmodium falciparum D10. The data set is classed as functional.
Data set [4] concerns the target T1, Chloroquine resistance transporter (Plasmodium falciparum) (UniProt Q9N623).
T1 sequence (whole entry): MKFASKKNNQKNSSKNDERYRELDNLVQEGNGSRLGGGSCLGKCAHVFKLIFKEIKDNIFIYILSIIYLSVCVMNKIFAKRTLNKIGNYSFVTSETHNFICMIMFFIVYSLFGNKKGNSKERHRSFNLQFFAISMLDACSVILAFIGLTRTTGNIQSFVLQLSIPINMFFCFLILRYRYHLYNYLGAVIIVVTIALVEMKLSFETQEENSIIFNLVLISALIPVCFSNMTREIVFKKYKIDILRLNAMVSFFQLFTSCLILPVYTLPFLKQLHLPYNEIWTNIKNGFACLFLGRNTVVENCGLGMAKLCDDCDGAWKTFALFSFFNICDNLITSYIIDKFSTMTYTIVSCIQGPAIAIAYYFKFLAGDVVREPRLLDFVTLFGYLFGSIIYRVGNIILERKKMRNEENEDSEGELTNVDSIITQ
The data set can be described thus: Inhibition of chloroquine-resistant Plasmodium falciparum Dd2 CRT expressed in Xenopus laevis oocyte assessed as inhibition of [3H]chloroquine uptake at 100 uM measured from 1 to 2 hrs.

The test system of data set [5] is Plasmodium falciparum. The data set can be described thus: Antiplasmodial activity against chloroquine-resistant Plasmodium falciparum K1 infected in human erythrocytes assessed as inhibition of [3H]hypoxanthine incorporation incubated for 48 hrs prior to [3H]hypoxanthine addition measured after 48 hrs by liquid scintillation counting. The data set is classed as functional, organism-based.

The subject of data set [6] is Plasmodium falciparum. The data set can be described thus: Antiplasmodial activity against chloroquine-sensitive Plasmodium falciparum NF54 infected in human erythrocytes assessed as inhibition of [3H]hypoxanthine incorporation incubated for 48 hrs prior to [3H]hypoxanthine addition measured after 48 hrs by liquid scintillation counting. In kind it is functional, organism-based.

Data set [7] in a line: Cytotoxicity against human HepG2 cells after 24 hrs by neutral red dye uptake assay. In kind it is cell-based. Particulars: read-out: TC50.
The nature of data set [8]: Cytotoxicity against mouse NIH3T3 cells after 24 hrs by neutral red dye uptake assay. The data set is classed as cell-based. Particulars: read-out: TC50.

For orientation: IC50 means the concentration at which inhibition is half-maximal. As a reminder, the inhibition is the change of the read-out against control, counted positive when it falls.

The source made the active and inactive calls. The calls are words filed in the database; no cut-off is given here. Where only a bound is given, the exact number is not on record here.

As to `CN1CCN(Cc2ccc(C(Nc3ccnc4cc(Cl)ccc34)c3ccc(Cl)cc3)cc2)CC1` (racemic), the 50% inhibitory concentration (IC50) in the data set with Plasmodium falciparum [1] came out at 42 nM; with Plasmodium falciparum [2], 21 nM. Further, the “Ratio IC50” value with Plasmodium falciparum [3] came out at 2. In addition, the inhibition entry in data set [4] was “Active”.
`Fc1cc(C(Nc2ccnc3cc(Cl)ccc23)c2cccc(Cl)c2)ccc1CN1CCCC1` (racemic): the IC50 is 25 nM in the data set with Plasmodium falciparum [1] and 9 nM with Plasmodium falciparum [2]. The inhibition in data set [4] was 70%.
On to `COc1ccc2nccc(NC(c3ccc(Cl)cc3)c3ccc(CN4CCCC4)c(F)c3)c2c1` (racemic), for which the 50% inhibitory concentration (IC50) with Plasmodium falciparum [5] stood at 33 nM; in the data set on Plasmodium falciparum [1], 69 nM; in the data set with Plasmodium falciparum [2] it was 58 nM; in the data set on Plasmodium falciparum [6], 25 nM.
As for `COc1ccc2nccc(NC(c3ccc(Cl)cc3)c3ccc(CN4CCCC4)c(Cl)c3)c2c1` (racemic), the IC50 stood at 76 nM with Plasmodium falciparum [1] and 24 nM in the data set with Plasmodium falciparum [2].
For the molecule `COc1ccc2nccc(NC(c3cccc(Cl)c3)c3ccc(CN4CCOCC4)c(Cl)c3)c2c1` (racemic), the IC50 in the data set on Plasmodium falciparum [5] stood at 114 nM; in the data set with Plasmodium falciparum [1] it was 229 nM; with Plasmodium falciparum [2], 198 nM; in the data set with Plasmodium falciparum [6], 81 nM.
The corresponding values for `FC(F)(F)c1ccc2c(NC(c3cccc(Cl)c3)c3ccc(CN4CCCC4)c(Cl)c3)ccnc2c1` (racemic) are 46 nM, 111 nM, 74 nM and 34 nM.
For the molecule `Clc1ccc(C(c2ccccc2)(c2ccc(CN3CCCC3)cc2)n2ccnc2)cc1` (racemic), the inhibition entry in data set [4] was “Active”.
With `Clc1ccc(C(c2ccc(CN3CCCC3)cc2)N2CCN(c3ccnc4cc(Cl)ccc34)CC2)cc1` (racemic), the IC50 in the data set with Plasmodium falciparum [5] was determined as 156 nM; in the data set on Plasmodium falciparum [1] it was 735 nM; in the data set with Plasmodium falciparum [2], 631 nM; with Plasmodium falciparum [6] it was 88 nM. Further, the inhibition in data set [4] was found to be 58%.
For the molecule `Clc1ccccc1C(c1ccccc1)(c1ccccc1)n1ccnc1` [CLOTRIMAZOLE], the CC50 at 24 h in data set [7] and in data set [8] was over 48000 nM each time.
In the case of `Clc1cccc(C(Nc2ccnc3cc(Cl)ccc23)c2ccc(CN3CCCC3)c(Cl)c2)c1` (racemic), the 50% inhibitory concentration (IC50) with Plasmodium falciparum [5] was 19 nM; in the data set on Plasmodium falciparum [1], 50 nM; with Plasmodium falciparum [2], 57 nM; in the data set on Plasmodium falciparum [6] it was 13 nM.
`COc1ccc2nccc(NC(c3cccc(Cl)c3)c3ccc(CN4CCCC4)c(F)c3)c2c1` (racemic): the results for the IC50 in the data set with Plasmodium falciparum [1] and with Plasmodium falciparum [2] were 101 nM and 41 nM, respectively.
In the case of `COc1ccc(CCN(C)CCCC(C#N)(c2ccc(OC)c(OC)c2)C(C)C)cc1OC` (centres undefined), in data set [4], the inhibition turned out to be 74%.
As for `Clc1cccc(C(Nc2ccnc3cc(Cl)ccc23)c2ccc(CN3CCOCC3)c(Cl)c2)c1` (racemic), the concentration for half-maximal inhibition (IC50) with Plasmodium falciparum [5] was determined as 107 nM; with Plasmodium falciparum [1], 277 nM; with Plasmodium falciparum [2], 442 nM; in the data set with Plasmodium falciparum [6], 47 nM.
Regarding `Clc1ccc(C(Nc2ccnc3cc(Cl)ccc23)c2ccc(CN3CCN(Cc4ccccc4)CC3)cc2)cc1` (racemic), the half-maximal inhibitory concentration (IC50) in the data set on Plasmodium falciparum [1] is 790 nM; in the data set with Plasmodium falciparum [2] it was 163 nM. Further, in the data set with Plasmodium falciparum [3], the “Ratio IC50” value is 4.8.
On to `Clc1cccc(C(Nc2ccnc3cc(Cl)ccc23)c2ccc(CN3CCN(c4ccnc5cc(Cl)ccc45)CC3)c(Cl)c2)c1` (racemic), for which the IC50 turned out to be 10 nM in the data set on Plasmodium falciparum [5], 58 nM in the data set with Plasmodium falciparum [1], 104 nM in the data set on Plasmodium falciparum [2] and 83 nM with Plasmodium falciparum [6].
For the molecule `Clc1ccc(C(c2ccc(Cl)cc2)(c2ccc(CN3CCCC3)cc2)N2CCN(c3ccnc4cc(Cl)ccc34)CC2)cc1`, the 50% inhibitory concentration (IC50) in the data set on Plasmodium falciparum [5] amounted to 92 nM; in the data set on Plasmodium falciparum [1], 582 nM; with Plasmodium falciparum [2], 277 nM; with Plasmodium falciparum [6], 91 nM. Moreover, the inhibition in data set [4] was determined as 42%.
As for `COc1cc(C(Nc2ccnc3cc(Cl)ccc23)c2ccc(Cl)cc2)ccc1CN1CCCC1` (racemic), the IC50 came out at 48 nM in the data set on Plasmodium falciparum [1] and 31 nM in the data set with Plasmodium falciparum [2].
